# Results published in patent publication US20230270764A1, “COMPOSITION COMPRISING CANNABINOIDS, TERPENES, AND FLAVONOIDS FOR TREATING DEPRESSION” (priority 2020, published 2023).
# Columns and labels:
# BV2 microglial cells [1] = experiment: LPS-induced IL-6 release by BV2 microglia cell cultures (ELISA); assay type: cell-based, murine; conditions: for IC50: Mus musculus
# Procedure: (§1) The BV2 murine microglial cell line is used in these studies.
# (§2) The BV2 cells are cultured at 37° C. in a humidified atmosphere with 5% CO2 in high D-glucose (4.5 g/L) Dulbecco’s modified Eagle’s medium (Sigma, Rehovot, Israel) supplemented with 5% heat-inactivated fetal bovine serum, streptomycin (100 µg/ml), and penicillin (100 units/ml) and sodium pyruvate (1 mM; all from Biological Industries Ltd., Kibbutz Beit Haemek, Israel). 24 hours before experiments with LPS stimulation, the BV2 cells are split into 24 well plates, 2×10^5 cells per well, covered with 1 ml of growth medium and allowed to attach overnight. 24 hr before experiments with α-synuclein, the BV2 cells are split into 96-well plates, 50,000 (5×10^4) cells per well, covered with 200 µl of growth medium and allowed to attach overnight. Cultures of BV2 microglia cells are first treated by an individual cannabinoid, or terpene or flavonoid selected from: Cannabidiol (CBD), Δ-9-tetrahydrocannabinol (THC), Δ-8-tetrahydrocannabinol (THC), cannabigerol (CBG), cannabichromene (CBC), cannabigerolic acid (CBGA), Cannabidiolic acid (CBDA), THC acid (THCA), cannabichromenic Acid (CBCA), Cannabidivarin (CBDV), tetrahydrocannabivarin (THCV), Cannabichromevarin (CBCV), Cannabichromerocin ([…]), Cannabivarin (CBV), Cannabicitran (CBT), Cannabinol (CBN), Cannabicyclol (CBL), Cannabigerorcin (CBGO), Cannabinodiol (CBND), β-caryophyllene, β-elemene, β-myrcene, linalool, α-pinene, β-pinene, eucalyptol, alpha-terpineol, valencene, geraniol (lemonol), bisabolol, nerolidol, ocimene, terpinolene, humulene, α-terpinene, camphene, fenchol, α-phellandrene, Δ3-carene, γ-cardinene, sabinene, limonene, β-amyrin, cycloartenol, cannflavin A, cannflavin B, kaempferol, quercetin, luteolin, apigenin, canniprene, orientin, β-sitosterol, vitexin, isovitexin, and chrysin. Additional cultures of BV2 microglia cells are treated by an individual cannabinoid, with at least one additional cannabinoid, and/or terpene, and/or flavonoid, and/or celecoxib. Additional cultures are exposed to the vehicle of these compounds (cremophor, ethanol and PBS, 1:1:18 (v/v/v)) (FIG. 2A). In some studies, cultures of BV2 microglia cells are treated by a specific whole plant cannabis extract, with or without supplementation with cannabinoid(s), and/or terpene(s) and/or flavonoid(s), and/or celecoxib (FIG. 2B).
# (§3) For each individual cannabinoid mentioned above, 3-4 concentrations are used, ranging from 0.1 to 10 µM. For ultra-low dose Δ9-THC the concentration used is 0.01 µM. For each individual terpene or flavonoid mentioned above, 3-4 concentrations are used, ranging from 1 to 50 µM. For celecoxib, 3-4 concentrations are used, ranging from 0.1 to 10 µM. Two hours following the treatment, the cultures are exposed to one of the following microglia stimulators: LPS (Sigma L2630; Escherichia coli serotype O111:B4) is dissolved in D-PBS (Sigma, D8537) to a pre-stock concentration of 1 mg/ml, aliquoted and stored at -80° C. Stock solution of LPS at 10 ug/ml is prepared using sterile D-PBS, followed by filtering via 0.22 µm filter membrane, aliquoting and storing in -20° C. LPS is applied into the cell medium at a final concentration of 100 ng/ml. Poly I:C (Sigma, P1530) was first dissolved in sterile, molecular grade water to the concentration of 10 mg/ml (following the manufacturer’s instructions). This stock solution was further diluted to the concentration of 1 mg/ml in sterile PBS, and the aliquots stored in -20 °C.
# hippocampal microglia = experiment: Hippocampal microglia density and morphology (Iba-1 immunohistochemistry) in LPS-injected mice; assay type: in vivo
# Procedure: Given the suppressive effect of CBD on hippocampal microglia numbers in LPS-injected mice, the effect of Cannabidiolic acid (CBDA), as well as a combination of CBD with the flavonoid kaempferol, was examined to determine if they also produce a similar effect. Mice were firstly injected (i.p.) with CBDA or CBD/kaempferol combination, and 1 hr later were injected with LPS ([…] in 10 ml/kg saline). Brains were removed 24 hr later and prepared for immunohistochemistry, using the microglia marker Iba-1.
# [2] = test system: treatment-resistant major depression patients; experiment: Clinical trial of celecoxib plus CBD in treatment-resistant major depression patients; assay type: in vivo, human; conditions: celecoxib or CBD, each by itself
# Procedure: In the current study, the antidepressant effect of a combination of celecoxib and CBD is tested in a randomized, prospective, double-blind clinical trial in 80 treatment-resistant major depression patients of both genders, in the age range of 23-70 years. […] The safety and efficacy of celecoxib, CBD and their combination vs. vehicle placebo are assessed. Primary endpoints include the changes from baseline to post-treatment in overall depression levels, and particularly in the vegetative and somatic symptoms of depression, which are highly associated with the inflammatory status of the patients. Secondary endpoints include the changes from baseline to post-treatment in anxiety levels, overall functioning and clinical impression, as well as anhedonia.
# Treatment-resistant depressed patients undergo psychological assessment using the Montgomery-Asberg Depression Rating Scale (MADRS), with further analysis of the 3 specific factors of this scale (vegetative symptoms, dysphoria, and retardation), the Somatic Symptoms Scale-8, the Hamilton Anxiety Rating Scale (HARS), the Clinical Global Improvement and Severity Scales (CGI-I and CGI-S), and the Snaith-Hamilton Pleasure Scale (SHAPS). Subjects are treated twice daily (per os) with either a formulation containing celecoxib and CBD or with vehicle placebo. […]
# BV2 microglial cells [3] = experiment: α-synuclein-induced TNFα secretion by BV2 microglia cell cultures; assay type: cell-based, murine
# Procedure: as §2
# as §3, with “°C. […] To induce oligomerization, α-Synuclein solution is placed for 24 hours on a shaker with agitation of 80 rpm and at 37° C.” for “°C.”
# BV2 microglial cells [4] = experiment: LPS-induced IL-1β release by BV2 microglia cell cultures (ELISA); assay type: cell-based, murine; conditions: for IL-1β secretion vs Veh plus LPS: Example 4, by itself at 5 µM, not at 1 or 2.5 µM; for IC50: Mus musculus
# Procedure: as §1, §2, §3
# BV2 microglial cells [5] = experiment: Poly I:C-induced TNFα release by BV2 microglia; assay type: cell-based, murine; conditions: 5 and 10 µM
# Procedure: (§4) The BV2 cells are cultured at 37° C. in a humidified atmosphere with 5% CO2 in high D-glucose (4.5 g/L) Dulbecco’s modified Eagle’s medium (Sigma, Rehovot, Israel) supplemented with 5% heat-inactivated fetal bovine serum, streptomycin (100 µg/ml), and penicillin (100 units/ml) and sodium pyruvate (1 mM; all from Biological Industries Ltd., Kibbutz Beit Haemek, Israel). 24 hours before experiments with LPS stimulation, the BV2 cells are split into 24 well plates, 2×10^5 cells per well, covered with 1 ml of growth medium and allowed to attach overnight. 24 hr before experiments with α-synuclein, the BV2 cells are split into 96-well plates, 50,000 (5×10^4) cells per well, covered with 200 µl of growth medium and allowed to attach overnight. […]
# BV2 microglial cells [6] = experiment: Poly I:C-induced IL-6 release by BV2 microglia; assay type: cell-based, murine; conditions: 10 µM
# Procedure: as §4
compound,measurement,setting,value
"C=C(C)[C@@H]1CCC(C)=C[C@H]1c1c(O)cc(CCCCC)cc1O [CBD, cannabidiol]",release of IL-6,"BV2 microglial cells [1]; Example 3, 10 µM",significantly inhibited
same,IL-6 secretion vs Veh plus LPS,"BV2 microglial cells [1]; Example 6, CBD or CBDV given by themselves",no significant effect
same,LPS-induced IL-6 release,"BV2 microglial cells [1]; Example 25, CBD, CannA, CannB 5 and 10 µM, CannC 10 µM",significantly decreased
same,IC50,"BV2 microglial cells [1]; BV-2, Example 6 (FIG. 7D), by itself, read-out: IC50 for inhibiting LPS-induced IL-6 release",4.3 µM
same,IC50,"BV2 microglial cells [1]; BV-2, Example 6, addition of 1 µM CBDV, read-out: CBD IC50, LPS-induced IL-6 release",3.1 µM
same,IC50,"BV2 microglial cells [1]; BV-2, Example 6, addition of 2.5 µM CBDV, read-out: CBD IC50, LPS-induced IL-6 release",2 µM
same,IC50,"BV2 microglial cells [1]; BV-2, Example 6, addition of 5 µM CBDV, read-out: CBD IC50, LPS-induced IL-6 release",1.7 µM
same,IC50,"BV2 microglial cells [1]; BV-2, Example 25 (FIG. 25E), extracts calculated on dominant cannabinoid, read-out: IC50 for IL-6 inhibition",5.9 µM
same,"hippocampal microglia density, CBD- vs Veh-treated LPS mice","hippocampal microglia; young-adult male mice, CBD 30 mg/kg i.p. 3 consecutive days",significantly reduced
same,"changes in depression, anxiety, anhedonia and subjective improvement",[2],only mild changes
same,secretion of TNFα in cells incubated with α-synuclein aggregates/fibrils,"BV2 microglial cells [3]; Example 3, 10 µM",reduced
same,release of TNFα by microglia incubated with α-synuclein aggregates/fibrils,"BV2 microglial cells [3]; Example 8, CBD by itself 1, 2.5 or 5 µM","neither CBD (1, 2.5, or 5 µM) nor celecoxib (1 or 2.5 µM) by themselves affected the release of TNFα"
same,IC50,"BV2 microglial cells [3]; Mus musculus, BV-2, read-out: IC50, α-synuclein-induced TNFα release, Example 8 (FIG. 9B), by itself",5.1 µM
same,IL-1β levels,"BV2 microglial cells [4]; Example 3, 5 and 10 µM",effectively reduced
same,IL-1β secretion vs Veh plus LPS,BV2 microglial cells [4],effective in decreasing IL-1β
same,IL-1β release vs Veh plus LPS,"BV2 microglial cells [4]; Example 5, alone at 5 µM, no effect at 1 and 2.5 µM",decreased the IL-1β levels significantly
same,LPS-induced IL-1β secretion,"BV2 microglial cells [4]; Example 7, CBD 5 µM by itself (p<0.001)",significant suppression of IL-1β secretion
same,LPS-induced IL-1β release,"BV2 microglial cells [4]; Example 25, CannA, CannB 2.5, 5 and 10 µM, CBD, CannC 5 and 10 µM",significantly reduced
same,IC50,"BV2 microglial cells [4]; BV-2, read-out: CBD IC50, LPS-induced IL-1β release, Example 4, addition of 1 µM kaempferol",3.3 µM
same,IC50,"BV2 microglial cells [4]; BV-2, read-out: CBD IC50, LPS-induced IL-1β release, Example 4, addition of 2.5 µM kaempferol",2.1 µM
same,IC50,"BV2 microglial cells [4]; BV-2, read-out: CBD IC50, LPS-induced IL-1β release, Example 4, addition of 5 µM kaempferol",1.1 µM
same,IC50,"BV2 microglial cells [4]; BV-2, read-out: CBD IC50, LPS-induced IL-1β release, Example 5, addition of 1 µM quercetin",2.1 µM
same,IC50,"BV2 microglial cells [4]; BV-2, read-out: CBD IC50, LPS-induced IL-1β release, Example 5, addition of 2.5 µM quercetin",1.7 µM
same,IC50,"BV2 microglial cells [4]; BV-2, read-out: CBD IC50, LPS-induced IL-1β release, Example 5, addition of 5 µM quercetin",0.5 µM
same,IC50,"BV2 microglial cells [4]; BV-2, read-out: IC50 for IL-1β inhibition, Example 25 (FIG. 25F), extracts calculated on dominant cannabinoid",4.7 µM
same,IC50,"BV2 microglial cells [4]; BV-2, read-out: IC50 for inhibiting LPS-induced IL-1β release, Example 4 (FIG. 5D), by itself",4.5 µM
same,IC50,"BV2 microglial cells [4]; BV-2, read-out: IC50 for inhibiting LPS-induced IL-1β release, Example 5 (FIG. 6D), by itself",3.3 µM
same,Poly I:C-induced TNFα release,BV2 microglial cells [5],significantly decreased
same,Poly I:C-induced IL-6,BV2 microglial cells [6],markedly decreased
"C=C(C)[C@@H]1CCC(C)=C[C@H]1c1c(O)cc(CCCCC)c(C(=O)O)c1O [CBDA, Cannabidiolic acid]",hippocampal microglia density vs Vehicle,"hippocampal microglia; young-adult female mice, CBDA 1 mg/kg (not 0.5 or 5)",significantly reduced
same,number of branch points of microglia processes vs Vehicle,"hippocampal microglia; young-adult female mice, CBDA 5 mg/kg",significantly increased
same,microglia soma area and processes length,"hippocampal microglia; young-adult female mice, CBDA 0.5, 1, 5 mg/kg",no significant difference
same,number of branch points of microglia processes vs Vehicle,"hippocampal microglia; young-adult male mice, CBDA 1 mg/kg",significantly increased
same,hippocampal microglia density vs Vehicle,"hippocampal microglia; young-adult male mice, CBDA 1 mg/kg (not 5)",significantly reduced
same,microglia soma area and processes length,"hippocampal microglia; young-adult male mice, CBDA 1, 5 mg/kg, CBD 25 and CBDA 1 mg/kg",no significant difference
O=c1c(O)c(-c2ccc(O)cc2)oc2cc(O)cc(O)c12 [kaempferol],IL-1β secretion vs Veh plus LPS,BV2 microglial cells [4],effective in decreasing IL-1β
same,IC50,"BV2 microglial cells [4]; BV-2, Example 4 (FIG. 5D), by itself, read-out: IC50 for inhibiting LPS-induced IL-1β release",6.2 µM
